The text below walks through data of EP0885869A1, “THERAPEUTIC AGENT FOR DIABETES” (Japan Tobacco Inc., priority 1996, dated 1997).

Like-named read-outs stand apart in the source and are kept apart here.

For data set [1], the system named is fasted rats. The experiment in a line: Glucose tolerance test using fasted rats. It counts as in vivo, Male Wistar rats. Conditions: for inhibition in vivo at 1 mg/kg / inhibition in vivo at 10 mg/kg / inhibition in vivo at 30 mg/kg / inhibition in vivo at 100 mg/kg: Rattus norvegicus, 30 min before glucose loading (1 g/kg i.p.); for inhibition in vivo at 1 mg/kg: dose 1 mg/kg oral; for inhibition in vivo at 10 mg/kg: dose 10 mg/kg oral; for blood glucose in hyperglycemia at 30 min after glucose loading / blood glucose level 120 min later when hyperglycemia was not observed: oral administration, versus control, Fig. 1 (Example 93), Fig. 2 (Example 65, various doses); for inhibition in vivo at 30 mg/kg: dose 30 mg/kg oral; for inhibition in vivo at 100 mg/kg: dose 100 mg/kg oral. The method, then:
Glucose tolerance test using fasted rats
Glucose (1 g/kg) was intraperitoneally administered and blood (0.2 ml) was taken at 30, 60 and 120 minutes later from the tail vein. […] As a control, used was carboxymethylcellulose. The suppression of increase in blood glucose was expressed by inhibition ratio (%) in the group administered with test drug, relative to the increase in blood glucose in the control group at 30 min after glucose loading, which was taken as 100%. The blood glucose after 120 min was also shown by the ratio (%) of changes relative to the control.

For data set [2], the system named is fasted rats. As to the kind of experiment: Effects on blood glucose level of fasted rats. It counts as in vivo, Male Wistar rats. Conditions: oral administration to rats fasted for 16 hr, blood at 30, 60 and 120 minutes; Fig. 4. The method, then: Effects on blood glucose level of fasted rats
As a control, used was carboxymethylcellulose, and blood glucose after administration of tolbutamide and the compounds of the present invention was determined.

The subject of data set [3] is fasted rats.
[4] abbreviates: 0.5 h, inhibition of increase in blood glucose relative to control at 30 min, read-out: ratio of decrease at 30 min later(%).
Setting [5] is: 2 h, blood glucose after 120 min, ratio of changes relative to control, read-out: ratio of decrease at 120 min later(%).

`O=C1CC(C(=O)c2ccccc2)CO1` (racemic) [Example 81, (±)-4-benzoyldihydro-2(3H)-furanone]: in the data set on fasted rats [1] (setting [4]), the inhibition in vivo at 1 mg/kg was found to be 23.7% and the inhibition in vivo at 10 mg/kg was determined as 20.7%. For the same compound, in the data set with fasted rats [1] (setting [5]), the inhibition in vivo at 1 mg/kg is 1.7% and the inhibition in vivo at 10 mg/kg was 6%.
With `O=C1CC(C(=O)c2ccc(-c3ccccc3)cc2)CO1` (racemic) [Example 82, (±)-dihydro-4-(4'-phenylbenzoyl)-2(3H)-furanone], the figures for the inhibition in vivo at 1 mg/kg in the data set on fasted rats [1] (setting [4]) and in the data set on fasted rats [1] (setting [5]) were 24.6% and -8.2%, respectively.
On to `CC1(C(=O)c2ccc(-c3ccccc3)cc2)CCC(=O)O1` (single isomer, unassigned; (-)) [Example 93, (-)-dihydro-5-methyl-5-(4'-phenylbenzoyl)-2(3H)-furanone], for which, in the data set with fasted rats [1], the “blood glucose in hyperglycemia at 30 min after glucose loading” value is on record as “significantly decreased the blood glucose” and the “blood glucose level 120 min later when hyperglycemia was not observed” value was “did not unnecessarily lower the blood glucose level”. Moreover, in the data set with fasted rats [2], the fasting blood glucose result is “did not lower the fasting blood glucose”.
For the compound `CC(=O)CCC(=O)c1ccccc1` [Example 1, 1-phenyl-1,4-pentanedione], the inhibition in vivo at 30 mg/kg was 18.9% with fasted rats [1] (setting [4]) and 4.1% in the data set with fasted rats [1] (setting [5]). For the same compound, the inhibition in vivo at 100 mg/kg turned out to be 14.9% with fasted rats [1] (setting [4]) and 1.1% in the data set on fasted rats [1] (setting [5]).
For `CC(=O)CCC(=O)c1ccc(-c2ccccc2)cc1` [Example 2, 1-(4-biphenylyl)-1,4-pentanedione], the figures for the inhibition in vivo at 100 mg/kg in the data set on fasted rats [1] (setting [4]) and in the data set with fasted rats [1] (setting [5]) were 29.7% and 3.8%, respectively.
For `CC(=O)CCC(=O)C1CCCCC1` [Example 5, 1-cyclohexyl-1,4-pentanedione], the results for the inhibition in vivo at 100 mg/kg in the data set with fasted rats [1] (setting [4]) and with fasted rats [1] (setting [5]) were 21.4% and 7.3%, respectively.
For `CC(=O)CCC(=O)C1(C)CCCCC1` [Example 6, 1-(1-methyl-1-cyclohexyl)-1,4-pentanedione], the inhibition in vivo at 100 mg/kg was 19.8% with fasted rats [1] (setting [4]) and 15% in the data set with fasted rats [1] (setting [5]).
Consider `CC(=O)CCC(=O)c1ccc(CO)cc1` [Example 20, 1-(4-hydroxymethylphenyl)-1,4-pentanedione], for which the inhibition in vivo at 30 mg/kg in the data set with fasted rats [1] (setting [4]) amounted to 21.3%; in the data set on fasted rats [1] (setting [5]), 10.7%.
As for `O=C(O)CCC(=O)c1ccccc1` [Example 46, 4-oxo-4-phenylbutanoic acid], in the data set with fasted rats [1] (setting [4]), the inhibition in vivo at 1 mg/kg is 22.5% and the inhibition in vivo at 10 mg/kg is 19.8%. Also, in the data set with fasted rats [1] (setting [5]), the inhibition in vivo at 1 mg/kg came to 10.3% and the inhibition in vivo at 10 mg/kg is -7%.
As to `O=C(O)CCC(=O)c1ccc(-c2ccccc2)cc1` [Example 47, 4-(4-biphenylyl)-4-oxobutanoic acid], in the data set with fasted rats [1] (setting [4]), the inhibition in vivo at 1 mg/kg was 26.5%, the inhibition in vivo at 10 mg/kg came to 20.7% and the inhibition in vivo at 30 mg/kg stood at 29.1%. Moreover, in the data set with fasted rats [1] (setting [5]), the inhibition in vivo at 1 mg/kg worked out at 14.7%, the inhibition in vivo at 10 mg/kg turned out to be 4.7% and the inhibition in vivo at 30 mg/kg amounted to 6.8%.
Take `O=C(O)CCC(=O)c1ccc(CO)cc1` [Example 49, 4-[4-(hydroxymethyl)phenyl]-4-oxobutanoic acid]: the inhibition in vivo at 10 mg/kg in the data set on fasted rats [1] (setting [4]) is 25.2%; in the data set with fasted rats [1] (setting [5]), 2.2%.
For the compound `O=C(O)CCC(=O)C1CCCCC1` [Example 58, 4-cyclohexyl-4-oxobutanoic acid], in the data set with fasted rats [1] (setting [4]), the inhibition in vivo at 1 mg/kg came out at 12.5%, the inhibition in vivo at 10 mg/kg was found to be 26.1% and the inhibition in vivo at 30 mg/kg was determined as 26.7%. Also, in the data set with fasted rats [1] (setting [5]), the inhibition in vivo at 1 mg/kg is -0.9%, the inhibition in vivo at 10 mg/kg was 4.8% and the inhibition in vivo at 30 mg/kg is -2.8%.
As to `CC1(C(=O)CCC(=O)O)CCCCC1` [Example 61, 4-(1-methylcyclohexyl)-4-oxobutanoic acid], the figures for the inhibition in vivo at 30 mg/kg in the data set on fasted rats [1] (setting [4]) and in the data set on fasted rats [1] (setting [5]) were 31.5% and -5.7%, respectively.
Regarding `C[C@H]1CC[C@H](C(=O)CCC(=O)O)CC1` [Example 65, trans-4-(4-methylcyclohexyl)-4-oxobutanoic acid], in the data set with fasted rats [1] (setting [4]), the inhibition in vivo at 10 mg/kg was determined as 31.7% and the inhibition in vivo at 30 mg/kg turned out to be 41.2%. For the same compound, in the data set on fasted rats [1] (setting [5]), the inhibition in vivo at 10 mg/kg was 5% and the inhibition in vivo at 30 mg/kg worked out at 10.5%. For the same compound, in the data set on fasted rats [1], the “blood glucose in hyperglycemia at 30 min after glucose loading” value is on record as “tends to show significant decrease in the blood glucose level” and the “blood glucose level 120 min later when hyperglycemia was not observed” value was “does not unnecessarily lower the blood glucose level”.
Regarding `O=C(CC(C(=O)O)C(=O)O)c1ccc(-c2ccccc2)cc1` [Example 69, 2-[2-(4-biphenylyl)-2-oxoethyl]propanedioic acid], in the data set with fasted rats [1] (setting [4]), the inhibition in vivo at 1 mg/kg came to 22.1% and the inhibition in vivo at 10 mg/kg came to 24.6%. Besides, in the data set on fasted rats [1] (setting [5]), the inhibition in vivo at 1 mg/kg was found to be 4.9% and the inhibition in vivo at 10 mg/kg is 3%.
As to `O=C(O)CCC(=O)c1ccc2ccccc2c1` [Example 74, 4-(2-naphthyl)-4-oxobutanoic acid], the values for the inhibition in vivo at 10 mg/kg in the data set on fasted rats [1] (setting [4]) and in the data set on fasted rats [1] (setting [5]) were 21.5% and -0.2%, respectively.
As to `CC(=O)NCC(=O)c1ccccc1` [Example 80, 2-acetaminoacetophenone], in the data set with fasted rats [1] (setting [4]), the inhibition in vivo at 1 mg/kg was determined as 15.5% and the inhibition in vivo at 10 mg/kg stood at 12.4%. Also, in the data set on fasted rats [1] (setting [5]), the inhibition in vivo at 1 mg/kg is -2.4% and the inhibition in vivo at 10 mg/kg was -1.5%.
As to `CCCCNC(=O)NS(=O)(=O)c1ccc(C)cc1` [tolbutamide], in the data set with fasted rats [2], the fasting blood glucose result is listed as “lowered the fasting blood glucose”. Moreover, the “effect as a therapeutic agent for diabetes for treating hyperglycemia” value in the data set with fasted rats [3] (oral, in the dose that does not cause hypoglycemia, Fig. 3) was “did not show effective results”. Besides, the “blood glucose 120 min later” value in the data set with fasted rats [3] (rat, in vivo, po) is “induced hypoglycemia”.
